According to article PMC9575645 (Signal Transduction and Targeted Therapy, 2022):

Columns and labels:
HSL phosphorylation [1] = experiment: HSL phosphorylation by western blot in IAV-infected A549 cells; type: cell-based, human; conditions: 5 μM or 50 μM
HSL phosphorylation [2] = experiment: HSL phosphorylation by western blot in SARS-CoV-2-infected Vero E6 cells; type: cell-based, African green monkey; conditions: 5 μM or 50 μM
SARS-CoV-2 (KCDC03) = experiment: In vitro antiviral activity against SARS-CoV-2 in Vero E6 cells (CCIF viral yield, RT-qPCR); type: cell-based; conditions: SARS-CoV-2; FFA-deprived condition in lipase inhibitor-treated cells; 100 µM
[3] = tested on: Influenza A virus (H1N1) (PR8); conditions: IAV; FFA-deprived condition in lipase inhibitor-treated cells; 100 µM
[4] = In vivo toxicity in hamsters (body weight, gross and histopathological organ changes); conditions: 80 mg kg^-1 d^-1 atglistatin and 2.5 mg kg^-1 d^-1 remdesivir, singly or in combination
Method: Three groups of 3 hamsters were treated intraperitoneally with 20, 40, and 80 mg kg^-1 d^-1 of atglistatin prepared in a 100 μL vehicle [50% PEG400 in water (vol/vol)] Bid with a 12 h interval for four and a half consecutive days, respectively (Table S10). One group of 3 control anesthetized hamsters was administered intraperitoneally with 100 μL vehicle Bid with a 12 h interval for four and a half consecutive days (Table S10).
Histopathological changes in lungs, liver, kidney, heart, and spleen from the experimental mice or hamsters in each experimental group were determined as described elsewhere.^35 Briefly, each sample from the mice or hamsters in each experimental group was fixed in sufficient 10% neutral formalin at 20°C for 3-4 days, washed in tap water, then trimmed, and thereafter processed in the automatic embedding machine for the dehydration and paraffin embedment. Tissue sections, prepared on slides at a thickness of 3 μm by a microtome, were used for hematoxylin and eosin (H&E) staining or IHC as described below. H&E stained sections were observed under light microscopy. The morphological changes to lung, liver, kidney, heart, and spleen tissues were reviewed in a blinded manner as previous described.^35

Question: For `O=S(=O)(NCCNC/C=C/c1ccc(Br)cc1)c1cccc2cnccc12` [H89], which “viral-mediated HSL phosphorylation” value (HSL phosphorylation [1]) is on record?
Answer: prevented viral-mediated HSL phosphorylation

Question: What about the “viral-mediated HSL phosphorylation” value (HSL phosphorylation [2]) of the same compound?
Answer: prevented viral-mediated HSL phosphorylation

Question: Which results are given for `CCCCC/C=C\C/C=C\CCCCCCCC(=O)O` [LA, linoleic acid]?
Answer: virus replication on FFA supplementation (SARS-CoV-2 (KCDC03)): rescue of replication; virus replication on FFA supplementation [3]: rescue of replication

Question: With `CCCCCCCC/C=C\CCCCCCCC(=O)O` [OA, oleic acid] as the compound, how does the “virus replication on FFA supplementation” value (SARS-CoV-2 (KCDC03)) read?
Answer: rescue of replication

Question: What about the “virus replication on FFA supplementation” value [3] of the same compound?
Answer: rescue of replication

Question: With `CCCCCCCCCCCCCCCC(=O)O` [PA, palmitic acid] as the compound, how does the “virus replication on FFA supplementation” value (SARS-CoV-2 (KCDC03)) read?
Answer: rescue of replication

Question: What about the “virus replication on FFA supplementation” value [3] of the same compound?
Answer: rescue of replication

Question: With `CCC(CC)COC(=O)[C@H](C)N[P@](=O)(OC[C@H]1O[C@@](C#N)(c2ccc3c(N)ncnn23)[C@H](O)[C@@H]1O)Oc1ccccc1` [remdesivir] as the compound, how does the “toxicity, including body weight loss” value [4] read?
Answer: no toxicity
